# Measured values published in patent publication US20240226069A1, “VAFIDEMSTAT FOR USE IN TREATING AUTISM SPECTRUM DISORDERS” (ORYZON GENOMICS, S.A., priority 2019, published 2024).
# System: ASD patients
# Assay: Phase IIa clinical trial (REIMAGINE), ASD cohort treated with vafidemstat for 8 weeks
# Type: in vivo, human
# Conditions: 1.2 mg/day oral
# Excerpt: As part of a Phase II a clinical trial (REIMAGINE trial, EudraCT number 2018-002140-88) to evaluate the safety, tolerability and efficacy of vafidemstat to treat aggression in adult population in patients with different CNS disorders, a cohort of ASD patients was recruited and treated with vafidemstat for 8 weeks. A summary of the protocol of this clinical trial and results obtained in the ASD cohort are provided below.
# Reimagine is a unicenter, open-label, 1-arm, 8-week clinical study to evaluate the efficacy, safety and tolerability of vafidemstat in aggression in adult population with ASD, ADHD and BPD.
# Main objective of the trial: To evaluate the safety and tolerability of vafidemstat in adult population with ASD ADHD and BPD.
# Secondary objectives of the trial: To investigate the efficacy of vafidemstat in aggression in adult population with ASD ADHD and BPD.
# Main inclusion criteria: • age 18-85 • current diagnosis for ASD, ADHD or BPD according to DSM-5 criteria • significant or persistent agitation or aggression that was disruptive to patient's daily living or put the patient in harm's way for at least 3 days per week for at least 4 weeks prior to screening visit
# Treatment: All patients received vafidemstat (as free base) at a dose of 1.2 mg/day, administered orally as a single capsule, in a 5 days on/2 days off schedule, during 8 weeks.
# Six ASD patients were recruited, but there was one drop-out, and therefore the results as described herein correspond to the 5 ASD subjects eligible for analysis. A summary of the patients recruited in this ASD cohort (demographic data at baseline) can be found in Table 1.
# Evaluation of the effect of treatment with vafidemstat on aggression was performed using the NPI A/A as well as the CGI-I and CGI-S scales. The NPI A/A subscale is based on the NPI and consists of the 4 items in the NPI related to aggression/agitation, namely: agitation/aggression, disinhibition, irritability and aberrant motor disturbance. The severity of each of the 4 items in the NPI A/A scale is rated from 1 to 3 (1=mild, 2=moderate, 3=severe) and the NPI A/A score is calculated as the sum of the scores for all 4 items. CGI values reflect clinician's ratings of patient's aggression severity (CGI-S scale) and improvement in aggression from the initiation (baseline) of the treatment (CGI-I scale). In the CGI-I scale, change from initiation of treatment is rated using a seven-point scale, where 1=very much improved since initiation of treatment, 7=very much worse since initiation of treatment, and 4=no change from baseline. In the CGI-S scale, illness/condition severity is rated using a seven-point scale, the higher the score, the more severe the illness/condition, with 1=normal, not at all ill and 7=among the most extremely ill patients.
# In addition to assessing its effect on aggression, the effect of treatment with vafidemstat on ASD patients was also evaluated using the total NPI scale and the NPI non-aggression related combined score. The total NPI scale consists of 12 items relating to a variety of neuropsychiatric domains (namely: delusions, hallucinations, agitation/aggression, depression, anxiety, euphoria/elation, apathy/indifference, disinhibition, irritability, aberrant motor disturbance, nighttime behavior, and appetite/eating disorders) and was used to measure global functioning in ASD patients. The severity of each item in the NPI is rated from 1 to 3 (1=mild, 2=moderate, 3=severe) and the total NPI score is calculated as the sum of the scores for all 12 items. The NPI non-aggression related combined score is the NPI combined score for all other items in the NPI not related to aggression or agitation (8 items; namely: delusions, hallucinations, depression, anxiety, euphoria/elation, apathy/indifference, nighttime behavior, and appetite/eating disorders). […]
# [1] = adult ASD patients, 5 days on/2 days off, 8 weeks
structure (smiles),measurement,setting,value
"Nc1nnc(CN[C@@H]2C[C@H]2c2ccc(OCc3ccccc3)cc2)o1 [Vafidemstat, 5-((((1R,2S)-2-(4-(benzyloxy)phenyl)cyclopropyl)amino)methyl)-1,3,4-oxadiazol-2-amine]","total NPI score (12 items), visit 1 to visit 7","5 ASD patients, baseline vs 2 months of treatment, p=0.0019 (FIG. 4)",statistically significant reduction
same,"NPI non-aggression related combined score (8 items), visit 1 to visit 7","5 ASD patients, baseline vs 2 months of treatment, p=0.0142 (FIG. 5)",statistically significant reduction
same,"CGI-S value, visit 1 to visit 7","5 ASD patients, baseline vs 8 weeks treatment, no paired test could be calculated (FIG. 3)",reduction
same,"CGI-I value, visit 1 to visit 7","5 ASD patients, baseline vs 8 weeks treatment, p=0.0019 (FIG. 2)",statistically significant reductions
same,"NPI A/A (4-item agitation/aggression subscale) value, visit 1 to visit 7","5 ASD patients, baseline vs 8 weeks treatment, p=0.0098 (FIG. 1)",statistically significant reductions
same,safety and tolerability,[1],"safe and well tolerated, without significant adverse events"
same,sedation,[1],No sedation
same,"CGI-S score, visit 1 to visit 7, cohort with one additional patient","n=6 ASD patients, baseline vs 8 weeks treatment, p=0.0006 (FIG. 6)",statistically significant reduction
